Molecular target: MTP (Homo sapiens, UniProt P55157)
Test: MTP assay (triglyceride transfer from donor to acceptor vesicles)
Format: biochemical
Conditions: MTP activity, percent triglyceride transfer from donor to acceptor vesicles, 37° C.
Method in brief: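 Radiolabelled triglyceride transfer from donor vesicles (phosphatidylcholine, 7.5 mol % cardiolipin, 0.25 mol % glycerol tri[1-^14C]-oleate) to phosphatidylcholine acceptor vesicles with BSA, pH 7.5 Tris buffer; compounds in DMSO (0.13% final), 5 min preincubation at 37° C before MTP addition. Donor vesicles removed on DEAE-52; acceptor-supernatant ^14C counts give percent transfer.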

Chain of MTP (P55157 19-894, species assumed): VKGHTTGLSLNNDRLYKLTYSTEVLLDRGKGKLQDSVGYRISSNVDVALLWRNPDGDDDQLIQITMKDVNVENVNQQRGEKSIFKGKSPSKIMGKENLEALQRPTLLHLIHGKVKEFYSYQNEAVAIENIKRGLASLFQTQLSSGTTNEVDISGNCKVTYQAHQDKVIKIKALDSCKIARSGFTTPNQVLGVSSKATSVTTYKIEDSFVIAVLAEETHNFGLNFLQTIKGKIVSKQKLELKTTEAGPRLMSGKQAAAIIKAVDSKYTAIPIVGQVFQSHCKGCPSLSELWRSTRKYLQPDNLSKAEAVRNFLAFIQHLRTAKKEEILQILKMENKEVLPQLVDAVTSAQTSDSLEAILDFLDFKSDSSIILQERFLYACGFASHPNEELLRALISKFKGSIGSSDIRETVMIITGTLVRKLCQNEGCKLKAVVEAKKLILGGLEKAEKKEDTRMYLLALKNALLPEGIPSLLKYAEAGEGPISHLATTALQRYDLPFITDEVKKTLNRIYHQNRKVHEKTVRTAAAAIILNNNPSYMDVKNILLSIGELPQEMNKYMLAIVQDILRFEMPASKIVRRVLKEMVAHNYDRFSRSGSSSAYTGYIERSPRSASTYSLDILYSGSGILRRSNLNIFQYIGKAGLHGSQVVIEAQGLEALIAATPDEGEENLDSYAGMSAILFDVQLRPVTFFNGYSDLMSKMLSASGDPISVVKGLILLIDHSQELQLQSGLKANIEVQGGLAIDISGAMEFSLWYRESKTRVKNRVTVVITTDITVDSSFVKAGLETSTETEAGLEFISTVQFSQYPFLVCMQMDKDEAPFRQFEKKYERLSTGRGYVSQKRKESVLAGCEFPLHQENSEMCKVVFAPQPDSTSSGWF
Chain of MTP (P07237 18-508 partner, species assumed): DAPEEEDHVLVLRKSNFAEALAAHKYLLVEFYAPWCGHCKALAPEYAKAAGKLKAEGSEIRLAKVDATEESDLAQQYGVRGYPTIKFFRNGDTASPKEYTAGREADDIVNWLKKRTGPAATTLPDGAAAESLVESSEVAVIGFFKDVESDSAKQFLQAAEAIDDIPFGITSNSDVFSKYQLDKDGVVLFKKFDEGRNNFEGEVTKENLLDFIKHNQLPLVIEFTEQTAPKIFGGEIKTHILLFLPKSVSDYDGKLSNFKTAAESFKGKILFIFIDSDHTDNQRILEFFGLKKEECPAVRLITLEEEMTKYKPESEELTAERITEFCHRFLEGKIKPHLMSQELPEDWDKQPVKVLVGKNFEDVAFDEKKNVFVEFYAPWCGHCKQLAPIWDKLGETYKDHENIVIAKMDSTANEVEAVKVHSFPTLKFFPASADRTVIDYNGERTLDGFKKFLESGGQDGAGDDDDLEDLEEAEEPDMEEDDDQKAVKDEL

| Structure (SMILES) | IC50 [nM] |
| --- | --- |
| COC(=O)[C@]1(c2ccccc2)CC[C@@H](C(=O)N2CCC(NC(=O)c3c(O)cccc3OC)CC2)c2ccccc21 [Co. No. 55] | 60.7 |
| COC(=O)[C@]1(c2ccccc2)CC[C@@H](C(=O)N2CCC(NC(=O)c3cccnc3OC)CC2)c2ccccc21 [Co. No. 56] | 1.69 |
| CCOc1ncccc1C(=O)NC1CCN(C(=O)[C@@H]2CC[C@](C(=O)OC)(c3ccccc3)c3ccccc32)CC1 [Co. No. 57] | 5.68 |
| CCCOc1cccnc1C(=O)NC1CCN(C(=O)[C@@H]2CC[C@](C(=O)OC)(c3ccccc3)c3ccccc32)CC1 [Co. No. 58] | 149 |
| COC(=O)[C@]1(c2ccccc2)CC[C@@H](C(=O)N2CCC(NC(=O)c3cc(OC)nnc3OC)CC2)c2ccccc21 [Co. No. 59] | > 100 |
| COC(=O)[C@]1(c2ccccc2)CC[C@@H](C(=O)N2CCC(NC(=O)c3cc(O)ccc3OC)CC2)c2ccccc21 [Co. No. 61] | > 10000 |
| COc1ccccc1C(=O)NC1CCN(C(=O)[C@H]2CC[C@@](C(=O)NCC(=O)OC(C)(C)C)(c3ccccc3)c3ccccc32)CC1 [Co. No. 62] | 0.713 |
| COc1ccccc1C(=O)NC1CCN(C(=O)[C@H]2CC[C@@](C(=O)NCC(=O)O)(c3ccccc3)c3ccccc32)CC1 [Co. No. 63] | > 1000 |
| COC(=O)CNC(=O)[C@@]1(c2ccccc2)CC[C@H](C(=O)N2CCC(NC(=O)c3ccccc3OC)CC2)c2ccccc21 [Co. No. 64] | 3.87 |
| COC(=O)CCNC(=O)[C@@]1(c2ccccc2)CC[C@H](C(=O)N2CCC(NC(=O)c3ccccc3OC)CC2)c2ccccc21 [Co. No. 65] | 2.86 |

More lines, now with the values ahead:

| IC50 [nM] | Structure (SMILES) |
| --- | --- |
| 20.2 | CCOC(=O)[C@H](C)NC(=O)[C@@]1(c2ccccc2)CC[C@H](C(=O)N2CCC(NC(=O)c3ccccc3OC)CC2)c2ccccc21 [Co. No. 66] |
| 20.2 | CCOC(=O)[C@@H](C)NC(=O)[C@@]1(c2ccccc2)CC[C@H](C(=O)N2CCC(NC(=O)c3ccccc3OC)CC2)c2ccccc21 [Co. No. 67] |
| 17.9 | CCOC(=O)[C@@H](NC(=O)[C@@]1(c2ccccc2)CC[C@H](C(=O)N2CCC(NC(=O)c3ccccc3OC)CC2)c2ccccc21)C(C)C [Co. No. 68] |
| 24.4 | CCOC(=O)[C@H](NC(=O)[C@@]1(c2ccccc2)CC[C@H](C(=O)N2CCC(NC(=O)c3ccccc3OC)CC2)c2ccccc21)C(C)C [Co. No. 69] |
| 35.3 | CCOC(=O)[C@H](CC(C)C)NC(=O)[C@@]1(c2ccccc2)CC[C@H](C(=O)N2CCC(NC(=O)c3ccccc3OC)CC2)c2ccccc21 [Co. No. 70] |
| 10.7 | CCOC(=O)C[C@H](NC(=O)[C@@]1(c2ccccc2)CC[C@H](C(=O)N2CCC(NC(=O)c3ccccc3OC)CC2)c2ccccc21)C(=O)OCC [Co. No. 72] |
| > 100 | CCOC(=O)C[C@H](NC(=O)[C@@]1(c2ccccc2)CC[C@H](C(=O)N2CCC(NC(=O)c3ccccc3OC)CC2)c2ccccc21)C(=O)OC [Co. No. 73] |
| 5.08 | CCOC(=O)CC[C@H](NC(=O)[C@@]1(c2ccccc2)CC[C@H](C(=O)N2CCC(NC(=O)c3ccccc3OC)CC2)c2ccccc21)C(=O)OCC [Co. No. 74] |
| 2.24 | COC(=O)[C@H](CCCCNC(=O)OC(C)(C)C)NC(=O)[C@@]1(c2ccccc2)CC[C@H](C(=O)N2CCC(NC(=O)c3ccccc3OC)CC2)c2ccccc21 [Co. No. 75] |
| 33.3 | CCOC(=O)[C@H](NC(=O)[C@@]1(c2ccccc2)CC[C@H](C(=O)N2CCC(NC(=O)c3ccccc3OC)CC2)c2ccccc21)c1ccccc1 [Co. No. 79] |
| 70.1 | CCOC(=O)[C@@H](NC(=O)[C@@]1(c2ccccc2)CC[C@H](C(=O)N2CCC(NC(=O)c3ccccc3OC)CC2)c2ccccc21)c1ccccc1 [Co. No. 80] |
| 12.6 | CCOC(=O)[C@H](Cc1ccccc1)NC(=O)[C@@]1(c2ccccc2)CC[C@H](C(=O)N2CCC(NC(=O)c3ccccc3OC)CC2)c2ccccc21 [Co. No. 81] |
| 12.9 | CCOC(=O)[C@@H](Cc1ccccc1)NC(=O)[C@@]1(c2ccccc2)CC[C@H](C(=O)N2CCC(NC(=O)c3ccccc3OC)CC2)c2ccccc21 [Co. No. 82] |
| 71.4 | CCOC(=O)C1CCCCN1C(=O)[C@@]1(c2ccccc2)CC[C@H](C(=O)N2CCC(NC(=O)c3ccccc3OC)CC2)c2ccccc21 (stereo partly drawn) [Co. No. 83] |

System: HepG2 cells
Test: Quantification of the secretion of ApoB
Format: cell-based
Conditions: Homo sapiens, HepG2, 24 h, 24 hours of incubation, pIC50 = -log IC50
Protocol: HepG2 cells were cultured in 24-well plates in MEM Rega 3 containing 10% fetal calf serum. At 70% confluency, the medium was changed and the test compound or carrier (DMSO, 0.4% final concentration) was added. After 24 hours of incubation, the medium was transferred to Eppendorf tubes and cleared by centrifugation. A sheep antibody directed against either apoB was added to the supernatant and the mixture was kept at 8° C. for 24 hours. Then, rabbit anti-sheep antibody was added and the immune complex was allowed to precipitate for 24 hours at 8° C. The immunoprecipitate was pelleted by centrifugation for 25 minutes at 1320 g and washed twice with a buffer containing 40 mM Mops, 40 mM NaH2PO4, 100 mM NaF, 0.2 mM DTT, 5 mM EDTA, 5 mM EGTA, 1% Triton-X-100, 0.5% sodium deoxycholate (DOC), 0.1% SDS, 0.2 μM leupeptin and 0.2 μM PMSF. Radioactivity in the pellet was quantified by liquid scintillation counting. The IC50 values are usually converted to pIC50 values (=−log IC50 value) for ease of use.

| Structure (SMILES) | IC50 [nM] |
| --- | --- |
| COC(=O)[C@]1(c2ccccc2)CC[C@@H](C(=O)N2CCC(NC(=O)c3c(O)cccc3OC)CC2)c2ccccc21 [Co. No. 55] | > 1000 |
| COC(=O)[C@]1(c2ccccc2)CC[C@@H](C(=O)N2CCC(NC(=O)c3cccnc3OC)CC2)c2ccccc21 [Co. No. 56] | 2.24 |
| CCOc1ncccc1C(=O)NC1CCN(C(=O)[C@@H]2CC[C@](C(=O)OC)(c3ccccc3)c3ccccc32)CC1 [Co. No. 57] | 69.7 |
| CCCOc1cccnc1C(=O)NC1CCN(C(=O)[C@@H]2CC[C@](C(=O)OC)(c3ccccc3)c3ccccc32)CC1 [Co. No. 58] | 2.04 |
| COC(=O)[C@]1(c2ccccc2)CC[C@@H](C(=O)N2CCC(NC(=O)c3cc(OC)nnc3OC)CC2)c2ccccc21 [Co. No. 59] | 225 |
| COC(=O)[C@]1(c2ccccc2)CC[C@@H](C(=O)N2CCC(NC(=O)c3cc(O)ccc3OC)CC2)c2ccccc21 [Co. No. 61] | 286 |
| COc1ccccc1C(=O)NC1CCN(C(=O)[C@H]2CC[C@@](C(=O)NCC(=O)OC(C)(C)C)(c3ccccc3)c3ccccc32)CC1 [Co. No. 62] | 42.1 |
| COc1ccccc1C(=O)NC1CCN(C(=O)[C@H]2CC[C@@](C(=O)NCC(=O)O)(c3ccccc3)c3ccccc32)CC1 [Co. No. 63] | > 10000 |
| COC(=O)CNC(=O)[C@@]1(c2ccccc2)CC[C@H](C(=O)N2CCC(NC(=O)c3ccccc3OC)CC2)c2ccccc21 [Co. No. 64] | 17.8 |
| COC(=O)CCNC(=O)[C@@]1(c2ccccc2)CC[C@H](C(=O)N2CCC(NC(=O)c3ccccc3OC)CC2)c2ccccc21 [Co. No. 65] | 7.98 |

More lines, now with the values ahead:

| IC50 [nM] | Structure (SMILES) |
| --- | --- |
| > 1000 | CCOC(=O)[C@H](C)NC(=O)[C@@]1(c2ccccc2)CC[C@H](C(=O)N2CCC(NC(=O)c3ccccc3OC)CC2)c2ccccc21 [Co. No. 66] |
| 873 | CCOC(=O)[C@@H](C)NC(=O)[C@@]1(c2ccccc2)CC[C@H](C(=O)N2CCC(NC(=O)c3ccccc3OC)CC2)c2ccccc21 [Co. No. 67] |
| > 1000 | CCOC(=O)[C@@H](NC(=O)[C@@]1(c2ccccc2)CC[C@H](C(=O)N2CCC(NC(=O)c3ccccc3OC)CC2)c2ccccc21)C(C)C [Co. No. 68] |
| 154 | CCOC(=O)[C@H](NC(=O)[C@@]1(c2ccccc2)CC[C@H](C(=O)N2CCC(NC(=O)c3ccccc3OC)CC2)c2ccccc21)C(C)C [Co. No. 69] |
| > 1000 | CCOC(=O)[C@H](CC(C)C)NC(=O)[C@@]1(c2ccccc2)CC[C@H](C(=O)N2CCC(NC(=O)c3ccccc3OC)CC2)c2ccccc21 [Co. No. 70] |
| > 1000 | CCOC(=O)C[C@H](NC(=O)[C@@]1(c2ccccc2)CC[C@H](C(=O)N2CCC(NC(=O)c3ccccc3OC)CC2)c2ccccc21)C(=O)OCC [Co. No. 72] |
| > 1000 | CCOC(=O)C[C@H](NC(=O)[C@@]1(c2ccccc2)CC[C@H](C(=O)N2CCC(NC(=O)c3ccccc3OC)CC2)c2ccccc21)C(=O)OC [Co. No. 73] |
| > 1000 | CCOC(=O)CC[C@H](NC(=O)[C@@]1(c2ccccc2)CC[C@H](C(=O)N2CCC(NC(=O)c3ccccc3OC)CC2)c2ccccc21)C(=O)OCC [Co. No. 74] |
| 20.2 | COC(=O)[C@H](CCCCNC(=O)OC(C)(C)C)NC(=O)[C@@]1(c2ccccc2)CC[C@H](C(=O)N2CCC(NC(=O)c3ccccc3OC)CC2)c2ccccc21 [Co. No. 75] |
| 128 | CCOC(=O)[C@H](NC(=O)[C@@]1(c2ccccc2)CC[C@H](C(=O)N2CCC(NC(=O)c3ccccc3OC)CC2)c2ccccc21)c1ccccc1 [Co. No. 79] |
| 548 | CCOC(=O)[C@@H](NC(=O)[C@@]1(c2ccccc2)CC[C@H](C(=O)N2CCC(NC(=O)c3ccccc3OC)CC2)c2ccccc21)c1ccccc1 [Co. No. 80] |
| > 1000 | CCOC(=O)[C@H](Cc1ccccc1)NC(=O)[C@@]1(c2ccccc2)CC[C@H](C(=O)N2CCC(NC(=O)c3ccccc3OC)CC2)c2ccccc21 [Co. No. 81] |
| 289 | CCOC(=O)[C@@H](Cc1ccccc1)NC(=O)[C@@]1(c2ccccc2)CC[C@H](C(=O)N2CCC(NC(=O)c3ccccc3OC)CC2)c2ccccc21 [Co. No. 82] |
| 670 | CCOC(=O)C1CCCCN1C(=O)[C@@]1(c2ccccc2)CC[C@H](C(=O)N2CCC(NC(=O)c3ccccc3OC)CC2)c2ccccc21 (stereo partly drawn) [Co. No. 83] |

— patent US8114880B2, “Piperidine or piperazine substituted tetrahydro-naphthalene-1-carboxylic acid MTP inhibiting compounds” (Janssen Pharmaceutica N.V., priority 2006, dated 2012)
